Measurements from patent publication US20090018134A1, “Compounds - 945” (AstraZeneca AB, priority 2007, published 2009).

Target: T1, mTOR (Homo sapiens, UniProt P42345)
T1 construct: FLAG; made in house
Assay: In Vitro mTOR Kinase Assay (Echo), Test (a)(ii)
Assay type: biochemical
Conditions: read-out: mTOR Kinase Assay (Echo)
Method in brief: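 Inhibition expressed as IC50 from an AlphaScreen read-out: phospho-T389 p70 S6K antibody plus streptavidin donor/protein A acceptor beads, left overnight in the dark. The kinase reaction ran 2 h at room temperature, then was stopped with EDTA. Enzyme: FLAG-purified mTOR 1362-2549 fragment from stable HEK293 cells.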

T1 sequence (P42345 1362-2549): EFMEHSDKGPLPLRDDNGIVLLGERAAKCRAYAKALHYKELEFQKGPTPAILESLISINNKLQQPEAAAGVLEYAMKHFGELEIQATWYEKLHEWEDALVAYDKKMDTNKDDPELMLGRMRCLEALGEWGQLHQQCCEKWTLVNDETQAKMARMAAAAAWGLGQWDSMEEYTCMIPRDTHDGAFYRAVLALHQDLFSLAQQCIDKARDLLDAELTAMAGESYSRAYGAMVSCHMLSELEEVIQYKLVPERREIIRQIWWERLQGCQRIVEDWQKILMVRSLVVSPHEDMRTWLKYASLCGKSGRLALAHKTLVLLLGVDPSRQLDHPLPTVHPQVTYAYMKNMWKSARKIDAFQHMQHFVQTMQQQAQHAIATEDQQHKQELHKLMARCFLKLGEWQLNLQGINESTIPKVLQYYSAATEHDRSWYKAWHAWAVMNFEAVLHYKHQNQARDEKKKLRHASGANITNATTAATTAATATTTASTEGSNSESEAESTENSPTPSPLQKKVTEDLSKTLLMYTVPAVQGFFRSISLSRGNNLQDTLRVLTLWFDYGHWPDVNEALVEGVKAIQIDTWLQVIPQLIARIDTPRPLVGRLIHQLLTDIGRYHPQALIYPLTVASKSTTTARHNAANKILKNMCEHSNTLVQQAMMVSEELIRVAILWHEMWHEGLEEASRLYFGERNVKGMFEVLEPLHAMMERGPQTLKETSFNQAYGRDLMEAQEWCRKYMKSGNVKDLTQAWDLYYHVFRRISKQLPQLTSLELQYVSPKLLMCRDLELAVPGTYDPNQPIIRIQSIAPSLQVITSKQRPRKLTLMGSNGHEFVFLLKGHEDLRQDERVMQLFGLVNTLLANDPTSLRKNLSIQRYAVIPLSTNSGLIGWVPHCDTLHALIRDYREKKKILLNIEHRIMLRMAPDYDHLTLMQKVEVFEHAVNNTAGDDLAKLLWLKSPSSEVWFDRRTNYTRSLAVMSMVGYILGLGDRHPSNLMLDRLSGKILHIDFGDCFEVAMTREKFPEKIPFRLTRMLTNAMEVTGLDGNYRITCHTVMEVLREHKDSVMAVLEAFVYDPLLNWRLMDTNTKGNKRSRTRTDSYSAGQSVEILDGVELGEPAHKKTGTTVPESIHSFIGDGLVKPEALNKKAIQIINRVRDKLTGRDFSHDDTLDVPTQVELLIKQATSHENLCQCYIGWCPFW

IC50 [nM] | SMILES
60.5 | CN(C)CCNC(=O)Nc1ccc(-c2nc(N3CCOCC3)cc(C3(S(C)(=O)=O)CC3)n2)cc1 [Example 12f, 3-(2-dimethylaminoethyl)-1-[4-[4-(1-methylsulfonylcyclopropyl)-6-morpholin-4-ylpyrimidin-2-yl]phenyl]urea]
2.73 | CCCNC(=O)Nc1ccc(-c2nc(N3CCOCC3)cc(C3(S(C)(=O)=O)CC3)n2)cc1 [Example 12g, 1-[4-[4-(1-methylsulfonylcyclopropyl)-6-morpholin-4-ylpyrimidin-2-yl]phenyl]-3-propylurea]
3.92 | CS(=O)(=O)C1(c2cc(N3CCOCC3)nc(-c3ccc(NC(=O)NCCCO)cc3)n2)CC1 [Example 12h, 3-(3-hydroxypropyl)-1-[4-[4-(1-methylsulfonylcyclopropyl)-6-morpholin-4-ylpyrimidin-2-yl]phenyl]urea]
0.771 | Cn1cc(NC(=O)Nc2ccc(-c3nc(N4CCOCC4)cc(C4(S(C)(=O)=O)CC4)n3)cc2)cn1 [Example 12i, 3-(1-methylpyrazol-4-yl)-1-[4-[4-(1-methylsulfonylcyclopropyl)-6-morpholin-4-ylpyrimidin-2-yl]phenyl]urea]
1.67 | CS(=O)(=O)C1(c2cc(N3CCOCC3)nc(-c3ccc(NC(=O)NC4CC4)cc3)n2)CCCC1 [Example 12j, 3-cyclopropyl-1-[4-[4-(1-methylsulfonylcyclopentyl)-6-morpholin-4-ylpyrimidin-2-yl]phenyl]urea]
4.3 | CNC(=O)Nc1ccc(-c2nc(N3CCOCC3)cc(C3(S(C)(=O)=O)CCCC3)n2)cc1 [Example 12k, 3-methyl-1-[4-[4-(1-methylsulfonylcyclopentyl)-6-morpholin-4-ylpyrimidin-2-yl]phenyl]urea]
1.38 | CS(=O)(=O)C1(c2cc(N3CCOCC3)nc(-c3ccc(NC(=O)NCCO)cc3)n2)CCCC1 [Example 12l, 3-(2-hydroxyethyl)-1-[4-[4-(1-methylsulfonylcyclopentyl)-6-morpholin-4-ylpyrimidin-2-yl]phenyl]urea]
10.1 | CC(C)(CO)NC(=O)Nc1ccc(-c2nc(N3CCOCC3)cc(C3(S(C)(=O)=O)CCCC3)n2)cc1 [Example 12m, 3-(1-hydroxy-2-methylpropan-2-yl)-1-[4-[4-(1-methylsulfonylcyclopentyl)-6-morpholin-4-ylpyrimidin-2-yl]phenyl]urea]
238 | CN(C)CCNC(=O)Nc1ccc(-c2nc(N3CCOCC3)cc(C3(S(C)(=O)=O)CCCC3)n2)cc1 [Example 12n, 3-(2-dimethylaminoethyl)-1-[4-[4-(1-methylsulfonylcyclopentyl)-6-morpholin-4-ylpyrimidin-2-yl]phenyl]urea]
5.09 | CS(=O)(=O)C1(c2cc(N3CCOCC3)nc(-c3ccc(NC(=O)NCCCO)cc3)n2)CCCC1 [Example 12o, 3-(3-hydroxypropyl)-1-[4-[4-(1-methylsulfonylcyclopentyl)-6-morpholin-4-ylpyrimidin-2-yl]phenyl]urea]
1.4 | CS(=O)(=O)C1(c2cc(N3CCOCC3)nc(-c3ccc(NC(=O)NC4CC4)cc3)n2)CCC1 [Example 12p, 3-cyclopropyl-1-[4-[4-(1-methylsulfonylcyclobutyl)-6-morpholin-4-ylpyrimidin-2-yl]phenyl]urea]
1.62 | CNC(=O)Nc1ccc(-c2nc(N3CCOCC3)cc(C3(S(C)(=O)=O)CCC3)n2)cc1 [Example 12q, 3-methyl-1-[4-[4-(1-methylsulfonylcyclobutyl)-6-morpholin-4-ylpyrimidin-2-yl]phenyl]urea]
0.991 | CS(=O)(=O)C1(c2cc(N3CCOCC3)nc(-c3ccc(NC(=O)NCCO)cc3)n2)CCC1 [Example 12r, 3-(2-hydroxyethyl)-1-[4-[4-(1-methylsulfonylcyclobutyl)-6-morpholin-4-ylpyrimidin-2-yl]phenyl]urea]
134 | CN(C)CCNC(=O)Nc1ccc(-c2nc(N3CCOCC3)cc(C3(S(C)(=O)=O)CCC3)n2)cc1 [Example 12s, 3-(2-dimethylaminoethyl)-1-[4-[4-(1-methylsulfonylcyclobutyl)-6-morpholin-4-ylpyrimidin-2-yl]phenyl]urea]

Same assay, conditions: table of enzyme assay Test (a)(ii); read-out: Test (a)(ii) IC50

IC50 [nM] | SMILES
350 | CN(C)CCNC(=O)Nc1ccc(-c2nc(N3CCOCC3)cc(C3(S(C)(=O)=O)CC3)n2)cc1 [Example 12f, 3-(2-dimethylaminoethyl)-1-[4-[4-(1-methylsulfonylcyclopropyl)-6-morpholin-4-ylpyrimidin-2-yl]phenyl]urea]
117 | CN(C)CCNC(=O)Nc1ccc(-c2nc(N3CCOCC3)cc(C3(S(C)(=O)=O)CCC3)n2)cc1 [Example 12s, 3-(2-dimethylaminoethyl)-1-[4-[4-(1-methylsulfonylcyclobutyl)-6-morpholin-4-ylpyrimidin-2-yl]phenyl]urea]
3.57 | O=C(Nc1ccc(-c2nc(N3CCOCC3)cc(C3(S(=O)(=O)C4CC4)CC3)n2)cc1)NC1CC1 [Example 13, 3-Cyclopropyl-1-[4-[4-(1-cyclopropylsulfonylcyclopropyl)-6-morpholin-4-ylpyrimidin-2-yl]phenyl]urea]
3.41 | CNC(=O)Nc1ccc(-c2nc(N3CCOCC3)cc(C3(S(=O)(=O)C4CC4)CC3)n2)cc1 [Example 13a, 1-[4-[4-(1-cyclopropylsulfonylcyclopropyl)-6-morpholin-4-ylpyrimidin-2-yl]phenyl]-3-methylurea]
3.7 | CCNC(=O)Nc1ccc(-c2nc(N3CCOCC3)cc(C3(S(=O)(=O)C4CC4)CC3)n2)cc1 [Example 13b, 1-[4-[4-(1-cyclopropylsulfonylcyclopropyl)-6-morpholin-4-ylpyrimidin-2-yl]phenyl]-3-ethylurea]
3.51 | O=C(NCCO)Nc1ccc(-c2nc(N3CCOCC3)cc(C3(S(=O)(=O)C4CC4)CC3)n2)cc1 [Example 13d, 1-[4-[4-(1-cyclopropylsulfonylcyclopropyl)-6-morpholin-4-ylpyrimidin-2-yl]phenyl]-3-(2-hydroxyethyl)urea]
30.1 | CC(C)(CO)NC(=O)Nc1ccc(-c2nc(N3CCOCC3)cc(C3(S(=O)(=O)C4CC4)CC3)n2)cc1 [Example 13e, 1-[4-[4-(1-cyclopropylsulfonylcyclopropyl)-6-morpholin-4-ylpyrimidin-2-yl]phenyl]-3-(1-hydroxy-2-methylpropan-2-yl)urea]
386 | CN(C)CCNC(=O)Nc1ccc(-c2nc(N3CCOCC3)cc(C3(S(=O)(=O)C4CC4)CC3)n2)cc1 [Example 13f, 1-[4-[4-(1-cyclopropylsulfonylcyclopropyl)-6-morpholin-4-ylpyrimidin-2-yl]phenyl]-3-(2-dimethylaminoethyl)urea]
4.79 | CCCNC(=O)Nc1ccc(-c2nc(N3CCOCC3)cc(C3(S(=O)(=O)C4CC4)CC3)n2)cc1 [Example 13g, 1-[4-[4-(1-cyclopropylsulfonylcyclopropyl)-6-morpholin-4-ylpyrimidin-2-yl]phenyl]-3-propylurea]
10.6 | O=C(NCCCO)Nc1ccc(-c2nc(N3CCOCC3)cc(C3(S(=O)(=O)C4CC4)CC3)n2)cc1 [Example 13h, 1-[4-[4-(1-cyclopropylsulfonylcyclopropyl)-6-morpholin-4-ylpyrimidin-2-yl]phenyl]-3-(3-hydroxypropyl)urea]
2.75 | Cn1cc(NC(=O)Nc2ccc(-c3nc(N4CCOCC4)cc(C4(S(=O)(=O)C5CC5)CC4)n3)cc2)cn1 [Example 13i, 1-[4-[4-(1-cyclopropylsulfonylcyclopropyl)-6-morpholin-4-ylpyrimidin-2-yl]phenyl]-3-(1-methylpyrazol-4-yl)urea]
17.8 | O=C(Nc1ccc(-c2nc(N3CCOCC3)cc(C3(S(=O)(=O)C4CC4)CCCC3)n2)cc1)NC1CC1 [Example 13j, 3-cyclopropyl-1-[4-[4-(1-cyclopropylsulfonylcyclopentyl)-6-morpholin-4-ylpyrimidin-2-yl]phenyl]urea]
17.9 | CNC(=O)Nc1ccc(-c2nc(N3CCOCC3)cc(C3(S(=O)(=O)C4CC4)CCCC3)n2)cc1 [Example 13k, 1-[4-[4-(1-cyclopropylsulfonylcyclopentyl)-6-morpholin-4-ylpyrimidin-2-yl]phenyl]-3-methylurea]
10.8 | O=C(NCCO)Nc1ccc(-c2nc(N3CCOCC3)cc(C3(S(=O)(=O)C4CC4)CCCC3)n2)cc1 [Example 13l, 1-[4-[4-(1-cyclopropylsulfonylcyclopentyl)-6-morpholin-4-ylpyrimidin-2-yl]phenyl]-3-(2-hydroxyethyl)urea]
53.2 | CC(C)(CO)NC(=O)Nc1ccc(-c2nc(N3CCOCC3)cc(C3(S(=O)(=O)C4CC4)CCCC3)n2)cc1 [Example 13m, 1-[4-[4-(1-cyclopropylsulfonylcyclopentyl)-6-morpholin-4-ylpyrimidin-2-yl]phenyl]-3-(1-hydroxy-2-methylpropan-2-yl)urea]
997 | CN(C)CCNC(=O)Nc1ccc(-c2nc(N3CCOCC3)cc(C3(S(=O)(=O)C4CC4)CCCC3)n2)cc1 [Example 13n, 1-[4-[4-(1-cyclopropylsulfonylcyclopentyl)-6-morpholin-4-ylpyrimidin-2-yl]phenyl]-3-(2-dimethylaminoethyl)urea]
28.7 | O=C(NCCCO)Nc1ccc(-c2nc(N3CCOCC3)cc(C3(S(=O)(=O)C4CC4)CCCC3)n2)cc1 [Example 13o, 1-[4-[4-(1-cyclopropylsulfonylcyclopentyl)-6-morpholin-4-ylpyrimidin-2-yl]phenyl]-3-(3-hydroxypropyl)urea]
2.02 | O=C(Nc1ccc(-c2nc(N3CCOCC3)cc(C3(S(=O)(=O)C4CC4)CCC3)n2)cc1)NC1CC1 [Example 13p, 3-cyclopropyl-1-[4-[4-(1-cyclopropylsulfonylcyclobutyl)-6-morpholin-4-ylpyrimidin-2-yl]phenyl]urea]
1.92 | CNC(=O)Nc1ccc(-c2nc(N3CCOCC3)cc(C3(S(=O)(=O)C4CC4)CCC3)n2)cc1 [Example 13q, 1-[4-[4-(1-cyclopropylsulfonylcyclobutyl)-6-morpholin-4-ylpyrimidin-2-yl]phenyl]-3-methylurea]
1.98 | O=C(NCCO)Nc1ccc(-c2nc(N3CCOCC3)cc(C3(S(=O)(=O)C4CC4)CCC3)n2)cc1 [Example 13r, 1-[4-[4-(1-cyclopropylsulfonylcyclobutyl)-6-morpholin-4-ylpyrimidin-2-yl]phenyl]-3-(2-hydroxyethyl)urea]
8.46 | CC(C)(CO)NC(=O)Nc1ccc(-c2nc(N3CCOCC3)cc(C3(S(=O)(=O)C4CC4)CCC3)n2)cc1 [Example 13s, 1-[4-[4-(1-cyclopropylsulfonylcyclobutyl)-6-morpholin-4-ylpyrimidin-2-yl]phenyl]-3-(1-hydroxy-2-methylpropan-2-yl)urea]
